Results from the CheMixHub viscosity set.

Assay: xn = mol fraction of the nth substance listed

CCC(=O)c1ccccc1 + CC#N
308.15 K, 101 kPa
Conditions | viscosity [mPa·s]
x1 = 0.0418 | 0.3347
x1 = 0.0922 | 0.3774
x1 = 0.1459 | 0.4272
x1 = 0.2084 | 0.4875
x1 = 0.2804 | 0.5679
x1 = 0.3757 | 0.6605
x1 = 0.4796 | 0.7806
x1 = 0.6093 | 0.9478
x1 = 0.7791 | 1.188
x1 = 0.9397 | 1.426

OCCO + CC#N
viscosity [mPa·s], 100 kPa
Conditions | x2 = 0.1016 | x2 = 0.2004 | x2 = 0.3019 | x2 = 0.3984 | x2 = 0.4901 | x2 = 0.6353 | x2 = 0.6987 | x2 = 0.8061 | x2 = 0.8984
293.15 K | 13 | 8.4 | 5.53 | 3.48 | 2.4 | 1.35 | 1.06 | 0.71 | 0.51
298.15 K | 11.2 | 7.41 | 4.87 | 3.19 | 2.21 | 1.25 | 0.98 | 0.66 | 0.48
303.15 K | 9.25 | 6.17 | 4.25 | 2.85 | 2.01 | 1.17 | 0.93 | 0.63 | 0.45

S=C=S + CC(C)=O
viscosity [mPa·s]
Conditions | 293.15 K | 298.15 K
101 kPa, x1 = 0.035 | 0.32 | 0.3065
101 kPa, x1 = 0.107 | 0.316 | 0.3025
101 kPa, x1 = 0.167 | 0.315 | 0.3015
101 kPa, x1 = 0.202 | 0.314 | 0.301
101 kPa, x1 = 0.304 | 0.316 | 0.3015
101 kPa, x1 = 0.408 | 0.319 | –
101 kPa, x1 = 0.498 | 0.324 | 0.31
101 kPa, x1 = 0.633 | 0.3325 | 0.3185
101 kPa, x1 = 0.762 | 0.343 | –
101 kPa, x1 = 0.89 | 0.354 | 0.3365
101.33 kPa, x2 = 0.1384 | – | 0.3361
101.33 kPa, x2 = 0.2716 | – | 0.3258
101.33 kPa, x2 = 0.3443 | – | 0.3242
101.33 kPa, x2 = 0.4624 | – | 0.3103
101.33 kPa, x2 = 0.5524 | – | 0.3035
101.33 kPa, x2 = 0.6431 | – | 0.3003
101.33 kPa, x2 = 0.7358 | – | 0.2975
101.33 kPa, x2 = 0.8389 | – | 0.2974
101.33 kPa, x2 = 0.9171 | – | 0.2993

NCc1ccccc1 + CC(C)CCO
viscosity [mPa·s], 101.33 kPa
Conditions | x1 = 0.0999 | x1 = 0.1999 | x1 = 0.3 | x1 = 0.4 | x1 = 0.5 | x1 = 0.6 | x1 = 0.7 | x1 = 0.8 | x1 = 0.9
298.15 K | 3.425 | 3.149 | 2.901 | 2.684 | 2.474 | 2.284 | 2.103 | 1.941 | 1.806
303.15 K | 2.914 | 2.672 | 2.455 | 2.259 | 2.099 | 1.937 | 1.803 | 1.683 | 1.582
308.15 K | 2.536 | 2.319 | 2.142 | 1.979 | 1.833 | 1.706 | 1.602 | 1.51 | 1.441
